The NIST ThermoML archive (doi:10.1021/je300086w)
Numbers after ± are expanded uncertainties.

What was measured:
[1] = for Normal melting temperature: Crystal, AC calorimetry; for viscosity / mass density: 101.33 kPa, Liquid; for mass density: Vibrating tube method
[2] = refractive index (Na D-line) (dimensionless); details: 101.33 kPa, Liquid, Standard Abbe refractometry

Row | Compound | viscosity ([1]; 293.15 K) [mPa·s] | mass density ([1]; 293.15 K) [kg/m3] | viscosity ([1]; 298.15 K) [mPa·s] | mass density ([1]; 298.15 K) [kg/m3] | viscosity ([1]; 303.15 K) [mPa·s] | mass density ([1]; 303.15 K) [kg/m3] | viscosity ([1]; 308.15 K) [mPa·s] | mass density ([1]; 308.15 K) [kg/m3] | viscosity ([1]; 313.15 K) [mPa·s] | mass density ([1]; 313.15 K) [kg/m3] | viscosity ([1]; 318.15 K) [mPa·s] | mass density ([1]; 318.15 K) [kg/m3] | viscosity ([1]; 323.15 K) [mPa·s] | mass density ([1]; 323.15 K) [kg/m3] | viscosity ([1]; 328.15 K) [mPa·s] | mass density ([1]; 328.15 K) [kg/m3] | viscosity ([1]; 333.15 K) [mPa·s] | mass density ([1]; 333.15 K) [kg/m3] | viscosity ([1]; 338.15 K) [mPa·s] | mass density ([1]; 338.15 K) [kg/m3] | further results
1 | CC(C)(C)C(=O)[O-].C[N+](C)(C)CCO [choline pivalate] |  |  |  |  |  |  |  |  |  |  |  |  |  |  |  |  |  |  |  |  | Normal melting temperature [1]: 96.0 ± 1 °C
2 | CC(=O)OCC[N+](C)(C)C [2-acetoxy-N,N,N-trimethylethanaminium] |  |  |  |  |  |  |  |  |  |  |  |  |  |  |  |  |  |  |  |  | Normal melting temperature [1]: 72.0 ± 1 °C
3 | CCC(=O)[O-].C[N+](C)(C)CCO [cholinium propanoate] | 395.8 ± 22 | 1074.6 ± 1 | 290.2 ± 14 | 1071.5 ± 1 | 215.6 ± 8.6 | 1068.6 ± 1 | 163.2 ± 5.3 | 1065.7 ± 1 | 125.8 ± 3.2 | 1062.8 ± 1 | 98.5 ± 1.9 | 1060 ± 1 | 78.3 ± 1.1 | 1057.2 ± 1 | 63 ± 0.6 | 1054.3 ± 1 | 51.4 ± 0.4 | 1051.4 ± 1 | 42.4 ± 0.4 | 1048.6 ± 1 | viscosity ([1]; 343.15 K): 35.4 ± 0.4 mPa·s; mass density ([1]; 343.15 K): 1045.8 ± 1 kg/m3; viscosity ([1]; 348.15 K): 29.8 ± 0.3 mPa·s; mass density ([1]; 348.15 K): 1042.9 ± 1 kg/m3; viscosity ([1]; 353.15 K): 25.4 ± 0.3 mPa·s; mass density ([1]; 353.15 K): 1040.1 ± 1 kg/m3; refractive index ([2]; 293.15 K): 1.4705 ± 0.0004; refractive index ([2]; 298.15 K): 1.4686 ± 0.0004; refractive index ([2]; 303.15 K): 1.4668 ± 0.0004; refractive index ([2]; 308.15 K): 1.465 ± 0.0004; refractive index ([2]; 313.15 K): 1.4631 ± 0.0004; refractive index ([2]; 318.15 K): 1.4611 ± 0.0004; refractive index ([2]; 323.15 K): 1.4592 ± 0.0004; refractive index ([2]; 328.15 K): 1.4573 ± 0.0004; refractive index ([2]; 333.15 K): 1.4555 ± 0.0004
4 | CCCC(=O)[O-].C[N+](C)(C)CCO [choline butanoate] | 833.1 ± 63 | 1049.5 ± 1 | 630.6 ± 43 | 1046.5 ± 1 | 459.3 ± 28 | 1043.4 ± 1 | 344.2 ± 18 | 1040.5 ± 1 | 254 ± 11 | 1037.6 ± 1 | 193.8 ± 7.2 | 1034.6 ± 1 | 150.2 ± 4.5 | 1031.9 ± 1 | 118.2 ± 2.8 | 1029 ± 1 | 94.3 ± 1.7 | 1026.2 ± 1 | 76.1 ± 1 | 1023.4 ± 1 | viscosity ([1]; 343.15 K): 62.2 ± 0.6 mPa·s; mass density ([1]; 343.15 K): 1020.5 ± 1 kg/m3; viscosity ([1]; 348.15 K): 51.4 ± 0.4 mPa·s; mass density ([1]; 348.15 K): 1017.2 ± 1 kg/m3; viscosity ([1]; 353.15 K): 42.9 ± 0.4 mPa·s; mass density ([1]; 353.15 K): 1014.5 ± 1 kg/m3; refractive index ([2]; 293.15 K): 1.4716 ± 0.0004; refractive index ([2]; 298.15 K): 1.47 ± 0.0004; refractive index ([2]; 303.15 K): 1.4683 ± 0.0004; refractive index ([2]; 308.15 K): 1.4667 ± 0.0004; refractive index ([2]; 313.15 K): 1.465 ± 0.0004; refractive index ([2]; 318.15 K): 1.4633 ± 0.0004; refractive index ([2]; 323.15 K): 1.4617 ± 0.0004; refractive index ([2]; 328.15 K): 1.46 ± 0.0004; refractive index ([2]; 333.15 K): 1.4585 ± 0.0004
5 | CCCCCC(=O)[O-].C[N+](C)(C)CCO [2-hydroxy-N,N,N-trimethylethanaminium hexanoate] | 929.2 ± 73 | 1018.8 ± 1 | 710.7 ± 51 | 1015.7 ± 1 | 530.4 ± 34 | 1012.5 ± 1 | 400.3 ± 23 | 1009.8 ± 1 | 298 ± 14 | 1006.8 ± 1 | 225.9 ± 9.3 | 1003.9 ± 1 | 175.3 ± 6 | 1001.3 ± 1 | 140.3 ± 4 | 998.4 ± 1 | 110.9 ± 2.5 | 995.5 ± 1 | 89.7 ± 1.5 | 992.6 ± 1 | viscosity ([1]; 343.15 K): 73.7 ± 0.9 mPa·s; mass density ([1]; 343.15 K): 989.7 ± 1 kg/m3; viscosity ([1]; 348.15 K): 60.9 ± 0.6 mPa·s; mass density ([1]; 348.15 K): 986.8 ± 1 kg/m3; viscosity ([1]; 353.15 K): 51 ± 0.4 mPa·s; mass density ([1]; 353.15 K): 984 ± 1 kg/m3; refractive index ([2]; 293.15 K): 1.4726 ± 0.0004; refractive index ([2]; 298.15 K): 1.4709 ± 0.0004; refractive index ([2]; 303.15 K): 1.4692 ± 0.0004; refractive index ([2]; 308.15 K): 1.4675 ± 0.0004; refractive index ([2]; 313.15 K): 1.4658 ± 0.0004; refractive index ([2]; 318.15 K): 1.464 ± 0.0004; refractive index ([2]; 323.15 K): 1.4624 ± 0.0004; refractive index ([2]; 328.15 K): 1.4607 ± 0.0004; refractive index ([2]; 333.15 K): 1.459 ± 0.0004
